Reference: paper PMC11189555, “Aryl amino acetamides prevent Plasmodium falciparum ring development via targeting the lipid-transfer protein PfSTART1” (Nature Communications, 2024)
Where “and” joins values, the source holds several entries; their conditions need not be identical. Identical values can stand only once.

Legend:
[1] = system: processed PfSTART1 (proc1, proc2) in schizonts; assay: Processing of PfSTART1 along schizogony with egress inhibitors (Western blot densitometry); type: cell-based, Plasmodium falciparum; conditions: for Normalised by EXP2: START full length / Normalised by EXP2: START processed 1 / Normalised by EXP2: START processed 2 / Normalised by EXP2 and full length: START processed 1 / Normalised by EXP2 and full length: START processed 2 / Raw densitometry: START full length / Raw densitometry: START processed 1 / Raw densitometry: START processed 2: biological replicates 1-5
Description: Magnet-purified schizonts were harvested after a 4 h treatment with the following: DMSO (0.1%), 49c (10 nM), C1 (1.5 μM) or E64 (10 μM). Parasites were washed in ice-cold PBS + PI (centrifugation steps carried out at 4 °C at 3,000 g). Samples were resuspended in NRSB, sonicated, boiled 10 min at 80 °C and separated by electrophoresis as explained previously. The parasites used in this experiment were 3D7 transfected with p1.2-ABH(WT)-83-HA-glmS, i.e. parasites containing a recodonised version of PF3D7_0403800 within its genome. […]
(DMSO). Schizonts were saponin -lysed. (E) Synchronised 3D7 schizonts were magnet-purified, stalled at different stages of egress: 4 h with 10 nM 49c (plasmepsin X inhibitor), 1.5 µM compound 1 (C1; PKG inhibitor), 10 µM E64, or allowed to progress (DMSO). Whole cells were harvested. PEXEL-cleaved, and the two further processed forms of PfSTART1 are indicated by solid and empty arrows respectively.
(F) Densitometry of processed PfSTART1 (proc1 and proc2) was normalised to the corresponding PEXEL-cleaved PfSTART1. n=10 replicates (n=6 for the 49c treatment). Two-way ANOVA with Šídák's multiple comparisons test (compare each

VPS51 (Q8I2A9) = assay: Solvent-PISA (solvent proteome profiling, DIA-MS); type: binding, Plasmodium falciparum; conditions: WEHI991_vs_DMSO, gradient G1, VPS51
LSG1 (Q8ILF2) = assay: Solvent-PISA (solvent proteome profiling, DIA-MS); type: binding, Plasmodium falciparum; conditions: WEHI991_vs_DMSO, gradient G1, LSG1
RECQ1 (Q8I2W7) = assay: Solvent-PISA (solvent proteome profiling, DIA-MS); type: binding, Plasmodium falciparum; conditions: WEHI991_vs_DMSO, gradient G1, RECQ1
[2] = system: P. berghei sporozoites invading HC-04 human liver cells; assay: In vitro liver invasion assay; type: cell-based, Plasmodium berghei; conditions: Replicate 1 and 2
Description: P. berghei ANKA constitutively expressing mCherry[82] was used for the in vitro liver stage invasion assay. Animals used for the generation of the sporozoites were 4- to 5-week-old male Swiss Webster mice and were purchased from the Monash Animal Services (Melbourne, Victoria, Australia) and housed at 22 to 25 °C on a 12 h light/dark cycle with 40-70% humidity at the School of Biosciences, The University of Melbourne, Australia. All animal experiments were in accordance with the Prevention of Cruelty to Animals Act 1986, the Prevention of Cruelty to Animals Regulations 2008, and National Health and Medical Research Council (2013) Australian code for the care and use of animals for scientific purposes. These experiments were reviewed and permitted by the Melbourne University Animal Ethics Committee (2015123).
Infections of naïve Swiss mice were carried out by intraperitoneal (IP) inoculation obtained from a donor mouse between the first and fourth passages from cryopreserved stock. Parasitemia was monitored by Giemsa smear and exflagellation quantified 3 days post-infection. A. stephensi mosquitoes were allowed to feed on anaesthetised mice once the exflagellation rate was assessed between about 12 to 15 exflagellation events per 1 × 10^4 RBCs. Salivary glands of infected mosquitoes (days 17 to 24 post-infection) were isolated by dissection and parasites placed into RPMI-1640 media.
This was performed essentially as described[83] with the minor variations outlined in the Supplementary Information. […]
In vitro liver invasion assays. This was performed essentially as described16 with the following variations. In vitro human liver HCO4 cells (ATCC) were seeded at 1 × 10^5 cells/mL, grown for 24 h and then infected for 2 h with 30,000 Pb ANKA mCherry […]
expressing sporozoites. Following fixation, an IFA with anti -CSP antibody (1:500) followed by anti-mouse Alexafluor 488 (1:1 ,000; Invitrogen, Carlsbad, CA, USA) labels uninvaded parasites. Fluorescence signal was assessed using an Olympus CKX41 epifluorescence microscope. […]
Gametogenesis was then triggered by the addition of 10 μL ookinete medium (gametocyte culture medium supplemented with 100 μM xanthurenic acid and 0.27 µg/mL Cy3-labelled anti-Pfs25 antibody) to each well at room temperature. Plates were then cooled on a metal block at 4°C for four min to ensure even cooling and then stabilised for a further 4 min at 28°C. At 20 min post-induction, male gametogenesis was recorded in each well by automated brightfield microscopy using a x4 objective lens and 1.5x magnifier (x6 effective magnification). Afterward, plates were incubated in the dark at room temperature for 24 h and then female gametogenesis recorded in each well by automated fluorescence microscopy (anti-Pfs25-positive cells). All experiments were performed in quadruplicate with DMSO and cabamiquine (DDD107498)17 as negative and positive controls respectively. All data was evaluated in comparison to the positive and negative controls to calculate percentage inhibition of male and female gametocytes, and dose response analysis and IC50 calculation performed using GraphPad Prism. […]
The pellet was subjected to five

Hyp1-Nluc parasites = assay: Egress, invasion & recovery assay (Nluc bioluminescence, smears); type: cell-based, Plasmodium falciparum; conditions: schizonts treated 4 h: M-833 2 µM, W-991 60 nM, ML10 30 nM, E64 10 µM, heparin 100 µg/mL; then washed off
Text: To measure egress, invasion, and follow-up recovery in the presence of different compounds, we adapted the method developed in[11], using Hyp1-Nluc parasites. A full description is in the Supplementary Information. […]
and compound 4. Note that M-833 was first purchased from MolPort (MolPort -002-267-916) then made in-house at WEHI: the differences observed in EC50s across experiments are attributed to the different batches of M -833. […]
Egress, invasion & recovery assay. To measure egress, invasion and follow up recovery in the presence of different compounds, we adapted the method developed in6, using Hyp1-Nluc parasites7. These parasites episomally express the exported PEXEL protein Hyp1 (PF3D7_0113300) tagged with a NanoLuc luciferase (NLuc) and were selected with 2.5 nM WR99210 (Jacobus). Highly synchronised schizonts were obtained using ML10 (LifeArc) and sorbitol synchronisation, and Percoll-purified (the culture was gently layered over 67% Percoll (Cytiva) in RPMI, and centrifuged for 15 min at 1500 g and the schizont layer was collected and washed). In a 96-well plate, […]
cultures were set up in 4 replicates (3 replicates for the Nluc readout, and one replicate for Giemsa smears) with 1-2% parasitemia, 2% haematocrit, with the following […]
100 μg/ml heparin (Sigma) and 10 μM E64 (Sigma). The schizonts were allowed to egress and invade for 4 h at 37°C. A “background” plate without treatment was left in the fridge during this time. After 4 h, cultures were sorbitol -treated to eliminate schizonts that have not egressed. Smears were made every day for the following 3 days, and 5 μL of the resuspended cultures were taken to measure Nluc activity (to assess parasite’s presence). To measure Nluc activity, 5 μL culture were added to 45 μL NanoGlo reagent (1x Promega lysis buffer and NanoGlo reagent; Promega). The average luminescence of the background cultures was subtracted to the average luminescence of each sample. […]
The viable parasite value was then expressed in log units and parasite reduction ratio was calculated as a decrease in […]

[3] = schizonts treated 4 h: 49c 10 nM, C1 1.5 μM, E64 10 μM, vs DMSO and other treatments

CC(C)C[C@H](NC(=O)[C@H]1O[C@@H]1C(=O)O)C(=O)NCCCCN=C(N)N [E64]
Normalised by EXP2: START full length ([1]; BLOT AMA1, '+' lane): 9.91E+01 and 2.44E+01 and 1.44E+02 and 6.49E+01 and 9.10E+02 | Normalised by EXP2: START processed 1 ([1]; BLOT AMA1, '+' lane): 5.50E+01 and 7.11E+00 and 4.58E+01 and 1.53E+01 and 3.44E+02 | Normalised by EXP2: START processed 2 ([1]; BLOT AMA1, '+' lane): 9.13E+01 and 1.13E+01 and 7.80E+01 and 1.03E+01 and 3.88E+02 | Normalised by EXP2 and full length: START processed 1 ([1]; BLOT AMA1, '+' lane): 5.54E+01 and 2.91E+01 and 3.18E+01 and 2.36E+01 and 3.78E+01 | Normalised by EXP2 and full length: START processed 2 ([1]; BLOT AMA1, '+' lane): 9.21E+01 and 4.63E+01 and 5.42E+01 and 1.59E+01 and 4.26E+01 | Raw densitometry: START full length ([1]; BLOT AMA1, '+' lane): 9.54 and 2.49E+01 and 26.4 and 2.01E+01 and 2.02E+01 | Raw densitometry: START processed 1 ([1]; BLOT AMA1, '+' lane): 2.78 and 7.92E+00 and 6.24 and 7.59E+00 and 1.12E+01 | Raw densitometry: START processed 2 ([1]; BLOT AMA1, '+' lane): 4.42 and 1.35E+01 and 4.19 and 8.56E+00 and 1.86E+01 | Normalised by EXP2: START full length ([1]; BLOT AMA1, '-' lane): 1.05E+02 and 2.53E+01 and 1.75E+02 and 7.60E+01 and 6.88E+02 | Normalised by EXP2: START processed 1 ([1]; BLOT AMA1, '-' lane): 6.93E+01 and 7.41E+00 and 5.19E+01 and 1.82E+01 and 2.72E+02 | Normalised by EXP2: START processed 2 ([1]; BLOT AMA1, '-' lane): 9.19E+01 and 9.39E+00 and 9.29E+01 and 7.65E+00 and 2.73E+02 | Normalised by EXP2 and full length: START processed 1 ([1]; BLOT AMA1, '-' lane): 6.61E+01 and 2.93E+01 and 2.98E+01 and 2.39E+01 and 3.96E+01 | Normalised by EXP2 and full length: START processed 2 ([1]; BLOT AMA1, '-' lane): 8.76E+01 and 3.72E+01 and 5.32E+01 and 1.01E+01 and 3.96E+01 | Raw densitometry: START full length ([1]; BLOT AMA1, '-' lane): 8.29 and 2.80E+01 and 29.3 and 1.80E+01 and 2.42E+01 | Raw densitometry: START processed 1 ([1]; BLOT AMA1, '-' lane): 2.43 and 8.33E+00 and 7.01 and 7.12E+00 and 1.60E+01 | Raw densitometry: START processed 2 ([1]; BLOT AMA1, '-' lane): 3.08 and 1.49E+01 and 2.95 and 7.13E+00 and 2.12E+01 | Normalised by EXP2: START full length ([1]; BLOT Rh5, '+' lane): 7.41E+01 and 1.24E+02 and 2.65E+01 and 1.82E+02 and 1.65E+02 | Normalised by EXP2: START processed 1 ([1]; BLOT Rh5, '+' lane): 5.05E+01 and 4.02E+01 and 7.30E+00 and 3.75E+01 and 7.40E+01 | Normalised by EXP2: START processed 2 ([1]; BLOT Rh5, '+' lane): 7.26E+01 and 3.45E+01 and 1.15E+01 and 3.53E+01 and 8.50E+01 | Normalised by EXP2 and full length: START processed 1 ([1]; BLOT Rh5, '+' lane): 6.81E+01 and 3.26E+01 and 2.75E+01 and 2.05E+01 and 4.47E+01 | Normalised by EXP2 and full length: START processed 2 ([1]; BLOT Rh5, '+' lane): 9.79E+01 and 2.79E+01 and 4.33E+01 and 1.93E+01 and 5.14E+01 | Raw densitometry: START full length ([1]; BLOT Rh5, '+' lane): 12.9 and 1.34E+01 and 3.87E+01 and 2.57E+01 and 1.42E+01 | Raw densitometry: START processed 1 ([1]; BLOT Rh5, '+' lane): 4.2 and 3.69E+00 and 7.95E+00 and 1.15E+01 and 9.67E+00 | Raw densitometry: START processed 2 ([1]; BLOT Rh5, '+' lane): 3.6 and 5.80E+00 and 7.48E+00 and 1.32E+01 and 1.39E+01 | Normalised by EXP2: START full length ([1]; BLOT Rh5, '-' lane): 8.04E+01 and 1.20E+02 and 3.28E+01 and 2.15E+02 and 2.08E+02 | Normalised by EXP2: START processed 1 ([1]; BLOT Rh5, '-' lane): 5.15E+01 and 3.77E+01 and 7.46E+00 and 4.92E+01 and 7.28E+01 | Normalised by EXP2: START processed 2 ([1]; BLOT Rh5, '-' lane): 6.74E+01 and 3.23E+01 and 1.26E+01 and 2.81E+01 and 6.72E+01 | Normalised by EXP2 and full length: START processed 1 ([1]; BLOT Rh5, '-' lane): 6.41E+01 and 3.14E+01 and 2.27E+01 and 2.28E+01 and 3.49E+01 | Normalised by EXP2 and full length: START processed 2 ([1]; BLOT Rh5, '-' lane): 8.38E+01 and 2.69E+01 and 3.85E+01 and 1.30E+01 and 3.22E+01 | Raw densitometry: START full length ([1]; BLOT Rh5, '-' lane): 9.62 and 1.50E+01 and 4.00E+01 and 3.32E+01 and 1.67E+01 | Raw densitometry: START processed 1 ([1]; BLOT Rh5, '-' lane): 3.02 and 3.41E+00 and 9.14E+00 and 1.16E+01 and 1.07E+01 | Raw densitometry: START processed 2 ([1]; BLOT Rh5, '-' lane): 2.59 and 5.78E+00 and 5.21E+00 and 1.07E+01 and 1.40E+01 | level of PfSTART1proc1 normalised to PEXEL-cleaved PfSTART1 [1, 3]: contained most of both processed bands | level of PfSTART1proc2 normalised to PEXEL-cleaved PfSTART1 [1, 3]: significant enrichment in PfSTART1proc2

CC(C)(Nc1ccc(Cl)c(S(=O)(=O)N2CCOCC2)c1)C(=O)Nc1ccc(F)c(Cl)c1 [WEHI991]
Differential abundance (VPS51 (Q8I2A9)): 0.7605 | Differential abundance (LSG1 (Q8ILF2)): 0.5417 | Differential abundance (RECQ1 (Q8I2W7)): 0.6685

C=C1[C@@H](C)[C@H]2[C@H](Cc3ccccc3)NC(=O)[C@]23[C@H](OC(C)=O)/C=C/[C@@](C)(O)C(=O)[C@@H](C)C/C=C/[C@H]3[C@@H]1O [cytD, cytochalasin D, reference compound]
Liver stage invasion assay: in ([2]; count of sporozoites inside cells): 2 | Liver stage invasion assay: out ([2]; count of sporozoites outside cells): 118 and 305 | Liver stage invasion assay: ratio ([2]; in relative to in + out): 1.667 and 0.6515

heparin [reference compound]
parasite growth (Nluc bioluminescence) followed 72 h after 4 h treatment (Hyp1-Nluc parasites): virtually no recovery after three days
